Experimental data published in the supplement of paper PMC11061612.

Tests used:
Assay in all cases: combination Emax (second highest fraction inhibited in the dose matrix, 72 h); higher = more inhibition; extreme values may be limits of the assay
[1] = tested on: LCLC-103H (Non-Small Cell Lung Carcinoma)
In short: (§1)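 Cell lines grown in DMEM/F12 or RPMI with 10% FBS were plated in 1536-well plates and held 24 hours at 37°C, 5% CO2 before 72 hours of exposure to two-drug dose matrices, with DMSO typically at 0.2%. CellTiter-Glo 2.0 luminescence gave viability, which was converted to inhibition. Vehicle wells were set to 0 and blank wells to 1. Combination Emax is the second-highest inhibition in the matrix, and Bliss excess is the observed combination effect minus the expected EA + EB − EA·EB, where EA and EB are the single-agent effects.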

[2] = tested on: P30-OHK (B-Lymphoblastic Leukemia)
In short: as §1

[3] = tested on: SAT (Head and Neck Carcinoma)
In short: as §1

GAK (Melanoma) = tested on: GAK (Melanoma)
In short: as §1

AM-38 (Glioblastoma) = tested on: AM-38 (Glioblastoma)
In short: as §1

[4] = tested on: NCI-H596 (Other Solid Carcinomas)
In short: as §1

[5] = tested on: NCI-H1341 (Small Cell Lung Carcinoma)
In short: as §1

[6] = tested on: LS-1034 (Colorectal Carcinoma)
In short: as §1

[7] = tested on: RCC-JW (Kidney Carcinoma)
In short: as §1

[8] = tested on: CL-11 (Colorectal Carcinoma)
In short: as §1

[9] = tested on: SiHa (Cervical Carcinoma)
In short: as §1

ES6 (Ewing's Sarcoma) = tested on: ES6 (Ewing's Sarcoma)
In short: as §1

NCI-H2373 (Mesothelioma) = tested on: NCI-H2373 (Mesothelioma)
In short: as §1

[10] = tested on: COR-L88 (Small Cell Lung Carcinoma)
In short: as §1

IST-MEL1 (Melanoma) = tested on: IST-MEL1 (Melanoma)
In short: as §1

[11] = tested on: NCI-H1876 (Small Cell Lung Carcinoma)
In short: as §1

[12] = tested on: C-33-A (Cervical Carcinoma)
In short: as §1

[13] = tested on: IA-LM (Non-Small Cell Lung Carcinoma)
In short: as §1

[14] = tested on: SKG-IIIa (Cervical Carcinoma)
In short: as §1

[15] = tested on: SUP-M2 (T-Cell Non-Hodgkin's Lymphoma)
In short: as §1

Structure (SMILES)	combination Emax [1]	combination Emax [2]	combination Emax [3]	combination Emax (GAK (Melanoma))	combination Emax (AM-38 (Glioblastoma))	combination Emax [4]	combination Emax [5]	combination Emax [6]	combination Emax [7]	combination Emax [8]	combination Emax [9]	combination Emax (ES6 (Ewing's Sarcoma))	combination Emax (NCI-H2373 (Mesothelioma))	combination Emax [10]	combination Emax (IST-MEL1 (Melanoma))	combination Emax [11]	combination Emax [12]	combination Emax [13]	combination Emax [14]	combination Emax [15]
CCN(CCO)CCCOc1ccc2c(Nc3cc(CC(=O)Nc4cccc(F)c4)[nH]n3)ncnc2c1 [AZD2811] + C=CCn1c(=O)c2cnc(Nc3ccc(N4CCN(C)CC4)cc3)nc2n1-c1cccc(C(C)(C)O)n1 [AZD1775] (first compound max 1 µM, partner max 1 µM)	0.546	0.846	0.41	0.682	0.377	0.346	0.632	0.257	0.161	0.612	0.164	0.285	0.408	0.64	0.504	0.991	0.882	0.166	0.261	1
CCN(CCO)CCCOc1ccc2c(Nc3cc(CC(=O)Nc4cccc(F)c4)[nH]n3)ncnc2c1 [AZD2811] + C[C@@H]1COCCN1C2=NC(=NC(=C2)C3(CC3)[S@](=N)(=O)C)C4=C5C=CNC5=NC=C4 [AZD6738] (first compound max 1 µM, 7x7, partner max 10 µM)	0.5	0.928	0.276	0.564	0.747	0.377	0.733	0.64	0.545	0.777	0.225	0.6	0.534	0.615	0.731	0.963	0.87	0.304	0.326	0.999
CCN(CCO)CCCOc1ccc2c(Nc3cc(CC(=O)Nc4cccc(F)c4)[nH]n3)ncnc2c1 [AZD2811] + O=C(c1cc(Cc2n[nH]c(=O)c3ccccc23)ccc1F)N1CCN(C(=O)C2CC2)CC1 [Olaparib] (first compound max 1 µM, 7x7, partner max 10 µM)	0.752	0.848	0.215	0.295	0.331	0.238	0.294	0.192	0.183	0.202	0.173	0.249	0.206	0.295	0.259	0.821	0.289	0.222	0.147	0.975
CN(CCO)CC[C@H](CSc1ccccc1)Nc1ccc(S(=O)(=O)NC(=O)c2ccc(N3CCC([C@@H](O)c4ccccc4-c4ccc(Cl)cc4)CC3)cc2)cc1S(=O)(=O)C(F)(F)F [AZD4320] + C1CN(CCC1(C(=O)N[C@@H](CCO)C2=CC=C(C=C2)Cl)N)C3=NC=NC4=C3C=CN4 [Capivasertib] (first compound max 1 µM, 7x7, partner max 3 µM)	0.238	0.992	0.418	0.135	0.561	0.42	0.974	0.275	0.615	0.147	0.171	0.291	0.409	0.971	0.26	0.955	0.518	0.376	0.131	0.365
CN(CCO)CC[C@H](CSc1ccccc1)Nc1ccc(S(=O)(=O)NC(=O)c2ccc(N3CCC([C@@H](O)c4ccccc4-c4ccc(Cl)cc4)CC3)cc2)cc1S(=O)(=O)C(F)(F)F [AZD4320] + C=CCn1c(=O)c2cnc(Nc3ccc(N4CCN(C)CC4)cc3)nc2n1-c1cccc(C(C)(C)O)n1 [AZD1775] (first compound max 1 µM, partner max 1 µM)	0.726	1	0.708	0.833	0.834	0.318	1	0.371	0.712	0.507	0.112	0.572	0.404	0.978	0.85	1	0.953	0.462	0.426	1
CN(CCO)CC[C@H](CSc1ccccc1)Nc1ccc(S(=O)(=O)NC(=O)c2ccc(N3CCC([C@@H](O)c4ccccc4-c4ccc(Cl)cc4)CC3)cc2)cc1S(=O)(=O)C(F)(F)F [AZD4320] + CCN(CCO)CCCOc1ccc2c(Nc3cc(CC(=O)Nc4cccc(F)c4)[nH]n3)ncnc2c1 [AZD2811] (first compound max 1 µM, 7x7, partner max 1 µM)	0.344	1	0.375	0.257	0.932	0.289	1	0.251	0.661	0.0894	0.162	0.161	0.125	0.974	0.407	0.998	0.151	0.505	0.191	0.979
CN(CCO)CC[C@H](CSc1ccccc1)Nc1ccc(S(=O)(=O)NC(=O)c2ccc(N3CCC([C@@H](O)c4ccccc4-c4ccc(Cl)cc4)CC3)cc2)cc1S(=O)(=O)C(F)(F)F [AZD4320] + CN(C)CCCOc1ccc(-c2ccc3ncc4c(c3c2)n(C2CCOCC2)c(=O)n4C)cn1 [AZD0156] (first compound max 1 µM, 7x7, partner max 1 µM)	0.219	0.987	0.193	0.209	0.718	0.289	0.974	0.347	0.62	0.144	0.108	0.188	0.191	0.957	0.249	0.982	0.126	0.432	0.109	0.388
CN(CCO)CC[C@H](CSc1ccccc1)Nc1ccc(S(=O)(=O)NC(=O)c2ccc(N3CCC([C@@H](O)c4ccccc4-c4ccc(Cl)cc4)CC3)cc2)cc1S(=O)(=O)C(F)(F)F [AZD4320] + C[C@@H]1COCCN1C2=NC(=NC(=C2)C3(CC3)[S@](=N)(=O)C)C4=C5C=CNC5=NC=C4 [AZD6738] (first compound max 1 µM, 7x7, partner max 10 µM)	0.546	1	0.587	0.793	0.95	0.425	1	0.721	0.79	0.895	0.246	0.665	0.672	0.992	0.941	1	0.928	0.715	0.536	0.998
CN(CCO)CC[C@H](CSc1ccccc1)Nc1ccc(S(=O)(=O)NC(=O)c2ccc(N3CCC([C@@H](O)c4ccccc4-c4ccc(Cl)cc4)CC3)cc2)cc1S(=O)(=O)C(F)(F)F [AZD4320] + C[C@@H](Nc1cc(F)cc(F)c1)c1cc(C(=O)N(C)C)cc2c(=O)cc(N3CCOCC3)oc12 [AZD8186] (first compound max 1 µM, 7x7, partner max 3 µM)	0.507	0.979	0.446	0.312	0.905	0.381	0.99	0.334	0.817	0.378	0.33	0.463	0.48	0.966	0.405	1	0.515	0.617	0.471	0.944
CN(CCO)CC[C@H](CSc1ccccc1)Nc1ccc(S(=O)(=O)NC(=O)c2ccc(N3CCC([C@@H](O)c4ccccc4-c4ccc(Cl)cc4)CC3)cc2)cc1S(=O)(=O)C(F)(F)F [AZD4320] + Cc1cc2ncnn2cc1Nc1ncc2c(n1)n(C1CCOCC1)c(=O)n2C [AZD7648] (first compound max 1 µM, 7x7, partner max 10 µM)	0.223	0.982	0.305	0.314	0.811	0.338	0.999	0.159	0.566	0.126	0.12	0.268	0.374	0.964	0.415	0.925	0.22	0.488	0.12	0.47
CN(CCO)CC[C@H](CSc1ccccc1)Nc1ccc(S(=O)(=O)NC(=O)c2ccc(N3CCC([C@@H](O)c4ccccc4-c4ccc(Cl)cc4)CC3)cc2)cc1S(=O)(=O)C(F)(F)F [AZD4320] + Cn1cnc2c(F)c(Nc3ccc(Br)cc3Cl)c(C(=O)NOCCO)cc21 [Selumetinib] (first compound max 1 µM, 7x7, partner max 3 µM)	0.423	0.99	0.591	0.796	0.951	0.343	0.99	0.594	0.665	0.811	0.247	0.449	0.406	0.959	0.35	1	0.531	0.744	0.431	0.959
COc1nnc2ccc(N3CCC(c4ccc(OCCN5CCN(C)C(=O)[C@H]5C)cc4)CC3)nn12 [AZD5153] + C=CCn1c(=O)c2cnc(Nc3ccc(N4CCN(C)CC4)cc3)nc2n1-c1cccc(C(C)(C)O)n1 [AZD1775] (first compound max 1 µM, partner max 1 µM)	0.549	1	0.785	0.471	0.353	0.803	0.972	0.613	0.382	0.809	0.621	0.516	0.399	0.677	0.524	0.99	0.956	0.348	0.546	0.996
